In patent publication US6048882A, “Prophylactic and therapeutic agent for hepatic diseases” (Nisshin Flour Milling Co., Ltd., priority 1995, dated 2000):
Counter-ions that a name gives are not always drawn. Like-named read-outs stand apart in the source and are kept apart here.

Assays:
[1] = system: experimental hepatopathy models prepared by D-galactosamine administration; assay: Inhibitory action on hepatopathy in hepatopathy models by D-galactosamine (serum GPT and GOT); type: in vivo, Wistar strain male mice; details: iv, 24 h, lipid emulsion, i.v., dose 10 μg/kg, 2 hours after D-galactosamine
Protocol: (§1) In these tests, GPT (glutamic-pyruvic transaminase) and GOT (glutamic-oxaloacetic transaminase) were determined using kits for the determination of GPT and GOT upon the method by U. Lippi et al., Iatrozyme TA-Lq (available from Iatron Laboratories Inc.), wherein the NADH formed when enzymes act upon substrates can reduce nitrotetrazolium blue (NTB) via 1-methoxy-5-methylphenazinium methylsulfate (1-methoxy PMS) to form formazan, which is then subjected to colorimetric analysis at a wavelength of 560 nm.
Inhibitory action of lipid emulsions containing the present isoprenylamine derivatives was evaluated by inhibition rates of GPT and GOT in experimental hepatopathy models prepared by D-galactosamine administration.
The experimental hepatopathy model was prepared by intraperitoneal administration of D-galactosamine at 400 mg/kg to Wistar strain male […] weighing about 170 g. The present isoprenylamine derivative was formulated to a lipid emulsion according to the method described in Pharmaceutical Example 8, and was intravenously administered at a dose of 10-30 μg/kg 2 hours after the administration of D-galactosamine.
(§2) 24 hours after the D-galactosamine administration, blood samples were collected form animals under ether anesthesia and centrifuged. Then, serum GPT and GOT were determined and the respective inhibition rates were calculated on the bases of the serum GPT and GOT values obtained when the present isoprenylamine derivatives were not administered being defined as 100, respectively.
For comparison, glycyrrhizin ammonium (Tokyo Kasei Co.) dissolved in distilled water was administered in a similar manner to that for the isoprenylamine derivatives, blood sampling and determination were conducted and the serum GPT and GOT inhibition rates were calculated.

[2] = system: experimental hepatopathy models prepared by administering carbon tetrachloride; assay: Inhibitory action on hepatopathy in hepatopathy models by carbon tetrachloride (suspension with 2% Tween 80; serum GPT and GOT); type: in vivo, ddY strain male mice; details: suspension with 2% Tween 80, i.v., dose 0.1 mg/kg, one hour before carbon tetrachloride
Protocol: as §1
Inhibitory actions of the present isoprenylamine derivatives was evaluated by inhibition rates of GPT and GOT in experimental hepatopathy models prepared by administering carbon tetrachloride.
The experimental hepatopathy model was prepared by intraperitoneal administration of 0.02 ml/kg carbon tetrachloride to ddY strain male mice (6 weeks old, body weight of about 30 g). Carbon tetrachloride was diluted with olive oil to a concentration of 0.5% when administered. […]
as §2, with “20” for “24”, “administration of carbon tetrachloride,” for “D-galactosamine administration,”, “from” for “form”, “Compound 6 was” for “the present isoprenylamine derivatives were”

[3] = system: experimental hepatopathy models prepared by administering carbon tetrachloride; assay: Inhibitory action on hepatopathy in hepatopathy models by carbon tetrachloride (lipid emulsion; serum GPT and GOT); type: in vivo, ddY strain male mice; details: Mus musculus, iv, 20 h, i.v., one hour before carbon tetrachloride; for inhibition in vivo at 0.001 mg/kg: dose 1 μg/kg; for inhibition in vivo at 0.0001 mg/kg: dose 0.1 μg/kg
Protocol: Carbon tetrachloride was diluted with olive oil to a concentration of 0.5% when administered. The present isoprenylamine derivatives were formulated into the lipid emulsions according to the method described in Pharmaceutical Example 8 and intravenously administered at a dose of 0.1-10 μg/kg one hour before the administration of carbon tetrachloride. 20 hours after the administration of carbon tetrachloride, blood samples were collected from animals under ether anesthesia and centrifuged. Then, serum GPT and GOT were determined and the respective inhibition rates were calculated on the bases of the serum GPT and GOT values obtained when the present isoprenylamine derivative was not administered being defined as 100, respectively.

SMILES	inhibition in vivo at 0.01 mg/kg ([1]; read-out: GOT inhibition)	inhibition in vivo at 0.01 mg/kg ([1]; read-out: GPT inhibition)	GOT inhibition [2]	GPT inhibition [2]	inhibition in vivo at 0.001 mg/kg ([3]; read-out: GOT inhibition)	inhibition in vivo at 0.001 mg/kg ([3]; read-out: GPT inhibition)	inhibition in vivo at 0.0001 mg/kg ([3]; read-out: GOT inhibition)	inhibition in vivo at 0.0001 mg/kg ([3]; read-out: GPT inhibition)
CC(C)=CCC/C(C)=C/CC/C(C)=C/CC/C(C)=C/CC/C(C)=C/CC/C(C)=C/CC/C(C)=C/CC/C(C)=C/CC/C(C)=C/CNCc1ccc2c(c1)OCO2 [Compound 6, N-solanesylpiperonylamine hydrochloride]	40%	40%	37%	34%	50%	40%		
CC(C)=CCC/C(C)=C/CC/C(C)=C/CC/C(C)=C/CC/C(C)=C/CC/C(C)=C/CC/C(C)=C/CC/C(C)=C/CC/C(C)=C/CC/C(C)=C/CNCc1ccc2c(c1)OCO2 [Compound 20, N-decaprenylpiperonylamine hydrochloride]	44%	43%					53%	60%
